# Reference: US9139608B2 (priority 2010, dated 2015)
# Marks after values point to notes of the source that are not given here.
# Tests used:
# hemorrhoids = test: Prospective uncontrolled pilot study in patients with hemorrhoids, patient reported outcome; format: in vivo, Humans; settings: for Bloody stool, Median Value of Patient Reported Outcome / Difficulty to sit or walk, Median Value of Patient Reported Outcome / Edema, Median Value of Patient Reported Outcome / Itching, Median Value of Patient Reported Outcome / Pain, Median Value of Patient Reported Outcome: hemorrhoids, n = 5, scale 0 - Absence to 5 - Severe
# Procedure: A prospective uncontrolled pilot study to access the efficacy of the test drug in patients with hemorrhoids was conducted. […] The efficacy of the test drug was analyzed on the basis of patient reported outcome taken at the beginning and end of the study period. […] It was further observed that there was significant relief in pain and irritation associated with bowel movement by the end of the treatment period.
# Naproxen induced ulcers = Naproxen induced ulcers in rats, prophylactic; format: in vivo, Male Wistar rats; settings: then Naproxen 30 mg/kg p.o., n = 6
# From the text: Gastric lesions induced by NSAIDS drugs such as Naproxen can aggravate inflammatory reactions in the GI tract.
# [1] = test system: inflammatory bowel disease; test: Prospective study in patients with IBD, patient reported outcome; format: in vivo, Humans; design: key to Bleeding, Patient Recorded Outcome / Frequent trips to the bathroom, Patient Recorded Outcome / Dependence on medication diarrhea and pain, Patient Recorded Outcome / Abdominal pain, Patient Recorded Outcome / Diarrhea, Patient Recorded Outcome: 0—Absence; 1—Mild; 2—Moderate; 3—Severe; settings: 300 mg twice daily for 6 months; for Abdominal pain, Patient Recorded Outcome / Bleeding, Patient Recorded Outcome / Dependence on medication diarrhea and pain, Patient Recorded Outcome / Diarrhea, Patient Recorded Outcome / Frequent trips to the bathroom, Patient Recorded Outcome: IBD
# Procedure: A prospective study to assess the efficacy of the test drug in patients with IBD was conducted.
# Thereafter, the efficacy of the test drug was analyzed on the basis of patient reported outcome taken at the beginning and end of the study period. Observations: It was observed that all patients were experiencing relief from IBD related symptoms such as abdominal pain, diarrhea, rectal bleeding, fever, nausea and vomiting. It was further observed that there was significant improvement in bowel control which was seen from reduced frequency of visits to restrooms, dependence on diarrhoea medication and pain associated with bowel movement.
# ethanol induced ulcers = test: Ethanol induced ulcers in rats, prophylactic; format: in vivo, Male Wistar rats; settings: then Ethanol 8 ml/kg p.o., n = 6
# Procedure: Consumption of alcohol is another major factor resulting in gastric lesions.
# The mean ulcer area in this study was measured to be 174.4 mm^2±5.814 mm^2 in the control group indicating the ulcerogenic effect of ethanol.
# [2] = Pharmacokinetic study: availability of test drug at site of action; format: in vivo; settings: healthy rats, single oral dose 250 mg/kg, feces 0-24 h
# Procedure: The blood samples were collected at 0, 0.25, 0.50, 1, 2, 3, 4, 5 and 6 hours after dosing. Plasma was obtained by centrifugation of blood at 7000 rpm for 15 min at 4° C. and kept at −20° C. until analysis was carried out. The animals were kept in the metabolic cages for collection of urine and feces.
# histamine induced ulcers = test: Histamine (stress) induced ulcers in rats, prophylactic; format: in vivo, Male Wistar rats; settings: then Histamine 300 mg/kg i.p., n = 6
# From the text: Stress induced gastric lesion is a condition that can cause or aggravate inflammatory reactions in the GI tract.
# [3] = test system: H. pylori (ATCC 26695, strain MS-5); test: H. Pylori infected rats with NSAID induced ulcers (RUT and PCR); format: in vivo, Helicobacter Pylori
# TNBS induced IBD = test: TNBS induced colitis in rats; format: in vivo, Male Wistar rats
# From the text: In addition, increased body weight, decreased ulcer index and myeloperoxidase activity in colon is seen.
# The trinitrobenzenesulfonic acid (TNBS) induced colitis is one of the standard animal models used for IBD. In this model, a single intracolonic administration of TNBS damages the colonic epithelium and induces prolonged chronic inflammation.
# Procedure: In this study, Male Wistar rats (280-291 g) were fasted for 48 hrs, and put under anaesthesia. A 3 mm diameter cannula was inserted into the anus to the depth of 8 cm and 25 mg of TNBS dissolved in 0.25 ml of 30% ethanol solution was injected to each rat. The rats were positioned tail up for 1 minute. […] A healthy control group receiving only saline but no TNBS was maintained. On day 11, each group of rats were sacrificed by cervical dislocation and the colon was isolated for physical examination. Colon samples were preserved in 10% neutral formalin solution for histopathological evaluation.
# [4] = test system: acetic acid induced colitis; test: Acetic acid induced colitis in rats; format: in vivo, Male Wistar rats; settings: 50 mg/kg p.o. once daily, pretreatment for 3 days, n = 6
# From the text: The acetic-acid induced colitis is a model of IBD with a similarity of the inflammatory mediators to that of acute human intestinal inflammation.
# Procedure: In this model, initial injury was an epithelial necrosis and edema that variably extended into the lamina propria, submucosa, or external muscle layers, depending of the concentrations and length of exposure to acetic acid. […] Rats were fasted for 24 hrs, anesthetized and a cannula that has 3 mm diameter was inserted into the anus to the depth of 8 cm for instilling 2 ml of 3% acetic acid into the colon for 30 s. After 24 hrs, animals were sacrificed by cervical dislocation, the colon was isolated and the parameters of colitis were measured. […] The reversal of acetic acid induced conditions such as increased colon weight and colon weight to length ratio, which indicated beneficial effects of test drugs on colitis. These effects were further confirmed by decrease in macroscopic lesion score and myeloperoxidase activity in colon tissues.
# [5] = After Treatment, 300 mg twice daily for 15 days
# [6] = rats pretreated with 30 mg/kg p.o.
# [7] = rats pretreated with 60 mg/kg p.o.
# [8] = rats pretreated with 120 mg/kg p.o.
# [9] = TNBS induced IBD in rats, 50 mg/kg p.o. once daily, 10 days of treatment, n = 6
# [10] = colon, TNBS induced IBD in rats, 50 mg/kg p.o. once daily, 10 days of treatment, n = 6
smiles,measurement,setting,value
"C[C@H]1[C@H](C)CC[C@]2(C(=O)OC3O[C@H](CO[C@H]4O[C@H](CO)[C@@H](O[C@@H]5O[C@@H](C)[C@H](O)[C@@H](O)[C@H]5O)[C@H](O)[C@H]4O)[C@@H](O)[C@H](O)[C@H]3O)CC[C@]3(C)C(=CCC4[C@@]5(C)C[C@@H](O)[C@H](O)[C@@](C)(CO)[C@@H]5CC[C@]43C)[C@H]12 (stereo partly drawn) [Test Drug, Asiaticoside]","Bloody stool, Median Value of Patient Reported Outcome",hemorrhoids; [5],0
same,"Difficulty to sit or walk, Median Value of Patient Reported Outcome",hemorrhoids; [5],1
same,"Edema, Median Value of Patient Reported Outcome",hemorrhoids; [5],1
same,"Itching, Median Value of Patient Reported Outcome",hemorrhoids; [5],2
same,"Pain, Median Value of Patient Reported Outcome",hemorrhoids; [5],2
same,"Bloody stool, Median Value of Patient Reported Outcome",hemorrhoids; Before Treatment,5
same,"Difficulty to sit or walk, Median Value of Patient Reported Outcome",hemorrhoids; Before Treatment,5
same,"Edema, Median Value of Patient Reported Outcome",hemorrhoids; Before Treatment,3
same,"Itching, Median Value of Patient Reported Outcome",hemorrhoids; Before Treatment,5
same,"Pain, Median Value of Patient Reported Outcome",hemorrhoids; Before Treatment,5
same,relief of rectal bleeding,"hemorrhoids; five hemorrhoid patients, 300 mg twice daily",all patients were relieved of rectal bleeding on the 3rd day of treatment
same,Area of Ulceration,Naproxen induced ulcers; [6],5.49 ± 0.212^ns mm^2
same,Area of Ulceration,Naproxen induced ulcers; [7],4.52 ± 0.169**^ mm^2
same,Area of Ulceration,Naproxen induced ulcers; [8],2.632 ± 0.146***^ mm^2
same,"Abdominal pain, Patient Recorded Outcome","[1]; Patient 1, After",1
same,"Bleeding, Patient Recorded Outcome","[1]; Patient 1, After",0
same,"Dependence on medication diarrhea and pain, Patient Recorded Outcome","[1]; Patient 1, After",0
same,"Diarrhea, Patient Recorded Outcome","[1]; Patient 1, After",0
same,"Frequent trips to the bathroom, Patient Recorded Outcome","[1]; Patient 1, After",0
same,"Abdominal pain, Patient Recorded Outcome","[1]; Patient 1, Before",3
same,"Bleeding, Patient Recorded Outcome","[1]; Patient 1, Before",3
same,"Dependence on medication diarrhea and pain, Patient Recorded Outcome","[1]; Patient 1, Before",3
same,"Diarrhea, Patient Recorded Outcome","[1]; Patient 1, Before",3
same,"Frequent trips to the bathroom, Patient Recorded Outcome","[1]; Patient 1, Before",3
same,"Abdominal pain, Patient Recorded Outcome","[1]; Patient 2, After",0
same,"Bleeding, Patient Recorded Outcome","[1]; Patient 2, After",0
same,"Dependence on medication diarrhea and pain, Patient Recorded Outcome","[1]; Patient 2, After",0
same,"Diarrhea, Patient Recorded Outcome","[1]; Patient 2, After",0
same,"Frequent trips to the bathroom, Patient Recorded Outcome","[1]; Patient 2, After",1
same,"Abdominal pain, Patient Recorded Outcome","[1]; Patient 2, Before",3
same,"Bleeding, Patient Recorded Outcome","[1]; Patient 2, Before",3
same,"Dependence on medication diarrhea and pain, Patient Recorded Outcome","[1]; Patient 2, Before",3
same,"Diarrhea, Patient Recorded Outcome","[1]; Patient 2, Before",3
same,"Frequent trips to the bathroom, Patient Recorded Outcome","[1]; Patient 2, Before",3
same,"Abdominal pain, Patient Recorded Outcome","[1]; Patient 3, After",1
same,"Bleeding, Patient Recorded Outcome","[1]; Patient 3, After",0
same,"Dependence on medication diarrhea and pain, Patient Recorded Outcome","[1]; Patient 3, After",1
same,"Diarrhea, Patient Recorded Outcome","[1]; Patient 3, After",2
same,"Frequent trips to the bathroom, Patient Recorded Outcome","[1]; Patient 3, After",0
same,"Abdominal pain, Patient Recorded Outcome","[1]; Patient 3, Before",3
same,"Bleeding, Patient Recorded Outcome","[1]; Patient 3, Before",3
same,"Dependence on medication diarrhea and pain, Patient Recorded Outcome","[1]; Patient 3, Before",3
same,"Diarrhea, Patient Recorded Outcome","[1]; Patient 3, Before",3
same,"Frequent trips to the bathroom, Patient Recorded Outcome","[1]; Patient 3, Before",3
same,"incidences of joint pain, skin diseases or eye related complications",[1]; three IBD patients,"no incidences of joint pain, skin diseases or eye related complications"
same,tolerability,[1]; three IBD patients,well tolerated
same,Area of Ulceration,ethanol induced ulcers; [6],159.3 ± 4.846* mm^2
same,Area of Ulceration,ethanol induced ulcers; [7],137.6 ± 4.069*** mm^2
same,Area of Ulceration,ethanol induced ulcers; [8],110.4 ± 2.305*** mm^2
same,drug recovered from fecal matter,[2],about 81.42%
same,Area of Ulceration,histamine induced ulcers; [6],9.242 ± 0.415* mm^2
same,Area of Ulceration,histamine induced ulcers; [7],7.062 ± 0.362*** mm^2
same,Area of Ulceration,histamine induced ulcers; [8],4.598 ± 0.323*** mm^2
same,ulcer area,[3]; H. Pylori infected rats with NSAID induced ulcers,dose dependent and time dependent reduction
same,"eradication of H. Pylori infection (RUT, PCR)","[3]; H. pylori infected rats with Naproxen induced ulcers, 120 mg/kg p.o. twice daily",not effective in H. Pylori eradication
same,"eradication of H. Pylori infection (RUT, PCR)","[3]; H. pylori infected rats with Naproxen induced ulcers, 240 mg/kg p.o. once daily",not effective in H. Pylori eradication
same,antibacterial action on H. Pylori infection,"[3]; H. pylori infected rats with Naproxen induced ulcers, 360 mg/kg p.o. once daily",rapid antibacterial action on 3rd week
same,"eradication of H. Pylori infection (RUT, PCR)","[3]; H. pylori infected rats with Naproxen induced ulcers, 360 mg/kg p.o. once daily, 9 weeks",eradication of H. Pylori infection in 9 weeks
same,Colon length,TNBS induced IBD; [9],14.14 ± 0.53 mm
same,Colon weight,TNBS induced IBD; [9],1.71 ± 0.07 g
same,Colon width,TNBS induced IBD; [9],0.73 ± 0.13 mm
same,Body weight,"TNBS induced IBD; TNBS induced IBD in rats, Day 0, before treatment, n = 6",252.67 ± 3.121^ns1
same,Body weight,"TNBS induced IBD; TNBS induced IBD in rats, Day 11 (10 days of treatment), 50 mg/kg p.o. once daily, n = 6",293.00 ± 0.84***^
same,Body weight,"TNBS induced IBD; TNBS induced IBD in rats, Normal (Day −2), before treatment, n = 6",286.50 ± 3.14^ns1
same,rectal bleeding,"TNBS induced IBD; TNBS induced IBD model, post treatment after TNBS administration",significantly reduced after 3rd day
same,Microscopic score,TNBS induced IBD; [10],4.40 ± 0.68
same,Myeloperoxidase activity,TNBS induced IBD; [10],0.02 ± 0.0003 U/mg
same,Colon length,[4],16.22 ± 0.63 mm
same,Colon weight,[4],1.53 ± 0.10 g
same,Colon width,[4],0.71 ± 0.05 mm
same,Microscopic score,[4]; colon,4.33 ± 0.71
same,Myeloperoxidase activity,[4]; colon,0.02 ± 0.002 U/mg
